The text below walks through data of patent US20260102505A1, “ANTI-CD45-IGN ANTIBODY DRUG CONJUGATES AND USES THEREOF” (Vor Biopharma Inc., priority 2022, published 2026).

Molecules are shown by their SMILES.

The test system of experiment [1] is relapsed/refractory acute myeloid leukemia (AML) patient-derived xenograft. Nature of the experiment: PDX model of relapsed/refractory AML, survival. In kind it is in vivo, mice. The note with it: R/R AML PDX; 30 mg/kg QDx5. On the procedure:
Anti-malignancy activity of an anti-CD45-ADC was assessed using a patient-derived xenograft (PDX) model of relapsed/refractory acute myeloid leukemia (AML). A single dose of anti-CD45-ADC (Ab5-DGN549) was administered to a group of mice when tumor levels reached ˜10% in peripheral blood, around day 24. Control groups received either PBS, isotype-ADC, CD45 mAb, or ARA-C at 30 mg/kg QDx5. Long-term, disease-free survival was monitored.
The anti-malignancy activity was assessed in a patient-derived xenograft (PDX) model of relapsed/refractory acute myeloid leukemia (AML).

Experiment [2] deals with recurrent angioimmunoblastic T-cell lymphoma patient-derived xenograft. Nature of the experiment: PDX model of recurrent angioimmunoblastic T-cell lymphoma, survival. In kind it is in vivo, mice. On the procedure: Anti-CD45-ADC was further tested in a PDX model of recurrent angioimmunoblastic T-cell lymphoma. A single dose of anti-CD45-ADC (Ab5-DGN549) was administered to a group of mice when tumor levels reached ˜10% in peripheral blood, around day 27. Control groups received either PBS, isotype-ADC, CD45 mAb, ARA-C at 30 mg/kg QDx5, or Dexamethasone at 5 mg/kg Q3Dx10. Long-term disease survival was monitored.

Experiment [3] deals with erythroid-specific BCL11A enhancer-edited CD34+ cells. The experiment is described as follows: Conditioning and engraftment of BCL11A enhancer-edited CD34+ cells in rhesus macaques. The conditions noted are these: busulfan 5.5 mg/kg×4 days, 25-34 weeks. It counts as in vivo. How it is done: Rhesus macaques were treated with a single dose of anti-CD45-ADC (Ab5-DGN549) at either 0.2 or 0.3 mg/kg followed by engraftment of erythroid-specific BCL11A enhancer-edited CD34+ cells.
For transplant studies, rhesus macaque CD34+ HSPCs were electroporated with 3×NLS SpCas9 protein and two RNAs targeting the +55 and +58 BCL11A erythroid enhancers.
A similar experiment was performed in Rhesus macaques. Rhesus macaques were treated with either 0.2 or 0.3 mg/kg of an anti-CD45-ADC as a single IV bolus. At day 10, the macaques underwent an HSC transplant with autologous gene-edited BCL11a enhancer −/− cells, and were monitored over time (FIG. 15A). A cohort of macaques were treated with Busulfan (5.5-6 mg/kg QDx4) as a control.
Two additional rhesus macaques were conditioned with 0.2 mg/kg anti-CD45 ADC and infused with autologous HSPCs transduced with a barcoded lentiviral vector.

Consider `Nc1ccn([C@@H]2O[C@H](CO)[C@@H](O)[C@@H]2O)c(=O)n1` [ARA-C, reference compound], for which the median survival in experiment [1] was 64 days; in experiment [2] (30 mg/kg QDx5), 48 days.

Turning to `CS(=O)(=O)OCCCCOS(C)(=O)=O` [Busulfan, reference compound], in experiment [3], the T cell editing was 8-31%. Compound `C[C@@H]1C[C@H]2[C@@H]3CCC4=CC(=O)C=C[C@]4(C)[C@@]3(F)[C@@H](O)C[C@]2(C)[C@@]1(O)C(=O)CO` [Dexamethasone] registered a median survival in experiment [2] (5 mg/kg Q3Dx10) of 48 days.
